Counter-ions that a name gives are not always drawn.
Target: T1, EGFR (Homo sapiens, UniProt P00533)
T1 construct: host or cells: A431
Assay: EGFR in-cell Western (ICW) screening protocol (EGFR inhibition assay)
Assay type: cell-based
Set-up: ICW 1 / ICW 2 / ICW Avg: unit not given here
Details: for ICW Screen: Table 11, % Inhibition of EGF dependent EGFR phosphorylation in A431 cells, compound 125 μM in assay; for ICW Avg / ICW 1 / ICW 2: ICW assay; for ICW Avg: average of runs 1 and 2; for ICW 1: run 1; for ICW 2: run 2
Protocol: The following example describes general EGFR in-cell Western (ICW) screening protocol. Methods are according to Chen et al. (2005) Analytical Biochemistry 338, 136-142 (incorporated herein by reference), except as otherwise noted.
Cell Plates: A431 cells (ATCC # CRL-1555) were grown in Dulbecco's Modified Eagle Medium (DMEM; ATCC #30-2002) supplemented with 10% fetal bovine serum, 105 units/ml pen/strep (Invitrogen #15140155) and 2.1 mM L-glutamine (ATCC #30-2214). Cells were seeded into 96 well tissue culture plates (BD Falcon #353948) at a density of 30,000 cells per well and incubated at 37° C. with 5% CO2 overnight. Two cell plates were prepared for each compound plate.
Serum Starvation: The cells were serum starved prior to compound addition. The media was removed by aspiration and the cells washed with PBS (200 μl/well; Invitrogen #20012-027). The PBS was removed by aspiration and replaced with 200 μl of DMEM (ATCC #30-2002) supplemented with 105 units/ml pen/strep (Invitrogen #15140155) and 2.1 mM 1-glutamine (ATCC #30-2214). The cell plates were incubated at 37° C./5% CO2 for 2 hours.
Compound Plate Preparation: The test compounds were solvated in 100% DMSO (Sigma #472301-2L) at a concentration of 25 mM. Compounds found not to be completely soluble in 100% DMSO at 25 mM were diluted to 10 mM with 100% DMSO and TFA (Fluka #91699) added to a final concentration of 0.2%. 40 μl of test compound was added to the appropriate well of a 96 well plate (Falcon #351190). As controls, 6 μM EGFR kinase inhibitor PD168393 (EMD/Calbiochem #513033) in 100% DMSO and DMSO alone were added to various wells. Prepared compound plates were stored at RT prior to use and at 4° C. long term.
Compound Dilution Plate Preparation: 250 μl of DMEM supplemented with 1 mg/ml BSA (Sigma A3059-10G) was added to the appropriate wells of a 96 well plate to prepare the compound dilution plates. Using a multichannel pipettor, 1.25 μl of compound from the compound plate was transferred into the compound dilution plate.
Compound Addition: The starve media was removed from the cell plates by aspiration. Using a multichannel pipettor, the compound dilution plates were mixed by pipetting up and down three times. 50 μl of mixed, diluted compound was added to each of two rows/columns on each of two cell plates. The cell plates with compound were incubated at 37° C./5% CO2 for 4 hours.
EGF Addition: 20 ng/ml EGF (Upstate #01-107) was prepared in DMEM supplemented with 1 mg/ml BSA. 50 μl of 20 or 0 ng/ml EGF was added to the appropriate wells without the removal of compound. The compound and EGF were mixed by pipetting up and down three times. The plates were incubated at 37° C./5% CO2 for 10 min. In some screening assays the final concentration of EGF used for simulation was 6.6, or 12.5 ng/ml rather than 10 ng/ml.
Fixation and Triton Washing: The EGF+compound was removed by aspiration and 150 μl of freshly prepared Fixation Solution (1×PBS, Sigma P3813-10PK, and 4% Formaldehyde, Pierce #28908) was immediately added. The plates were incubated at RT for 20 min without shaking. The Fixation Solution was removed by aspiration and the plates washed four times with 200 μl each of Triton Wash Solution (1×PBS, Sigma P3813-10PK, and 0.1% Triton X-100, T8787-50ML) for 5 min with gentle shaking.
Blocking and Probing: Following the last Triton Wash, the plates were blocked for 1.5 h at RT with shaking using 150 μl of Odyssey Blocking Buffer (LI-COR #927-40000). The block was removed by aspiration and 50 μl of diluted primary Ab mix was added. The plates were incubated at 4° C. overnight with gentle shaking. The plates were washed five times with 200 μl of PBST (1×PBS, Sigma P3813-10PK, and 0.1% Tween-20, Sigma P9416-50ML) for 5 min each with shaking 50 μl of diluted secondary Ab mix was added and the plates incubated at RT for 1 h with shaking. The plates were washed 5× with 200 μl of PBST for 5 min each with shaking. […]

T1 sequence (P00533 25-1210): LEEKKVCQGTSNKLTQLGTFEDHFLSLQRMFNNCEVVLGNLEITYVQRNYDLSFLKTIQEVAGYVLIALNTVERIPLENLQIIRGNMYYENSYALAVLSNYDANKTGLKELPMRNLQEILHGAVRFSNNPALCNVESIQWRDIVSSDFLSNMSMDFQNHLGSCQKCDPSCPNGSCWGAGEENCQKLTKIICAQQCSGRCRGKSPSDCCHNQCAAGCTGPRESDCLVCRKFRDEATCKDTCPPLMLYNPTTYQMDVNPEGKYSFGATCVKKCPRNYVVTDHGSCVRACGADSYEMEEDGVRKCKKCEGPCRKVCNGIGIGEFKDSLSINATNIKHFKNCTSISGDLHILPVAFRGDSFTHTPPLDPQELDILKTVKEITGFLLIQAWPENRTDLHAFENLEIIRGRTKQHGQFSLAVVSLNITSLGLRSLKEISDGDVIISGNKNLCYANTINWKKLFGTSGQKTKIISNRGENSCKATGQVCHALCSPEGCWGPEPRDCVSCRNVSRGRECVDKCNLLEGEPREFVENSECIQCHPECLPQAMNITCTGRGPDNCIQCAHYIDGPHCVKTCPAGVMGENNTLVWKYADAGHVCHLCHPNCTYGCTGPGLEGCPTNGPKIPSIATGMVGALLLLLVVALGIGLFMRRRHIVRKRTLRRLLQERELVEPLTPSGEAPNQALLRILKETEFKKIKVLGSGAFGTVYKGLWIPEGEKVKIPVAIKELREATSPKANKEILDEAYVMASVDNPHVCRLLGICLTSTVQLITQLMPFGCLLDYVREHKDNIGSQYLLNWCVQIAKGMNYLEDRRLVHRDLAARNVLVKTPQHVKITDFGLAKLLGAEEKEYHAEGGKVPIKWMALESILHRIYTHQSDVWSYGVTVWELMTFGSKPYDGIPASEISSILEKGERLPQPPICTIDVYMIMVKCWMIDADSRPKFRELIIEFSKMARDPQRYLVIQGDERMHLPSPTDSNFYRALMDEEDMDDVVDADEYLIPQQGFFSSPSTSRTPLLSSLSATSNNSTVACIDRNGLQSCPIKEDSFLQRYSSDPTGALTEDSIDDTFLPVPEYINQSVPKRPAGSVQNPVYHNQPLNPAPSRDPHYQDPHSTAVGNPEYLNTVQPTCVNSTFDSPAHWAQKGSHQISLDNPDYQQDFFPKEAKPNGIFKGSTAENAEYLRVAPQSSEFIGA

Row | Structure (SMILES) | ICW Screen (ICW Inhibition) | other results
1 | CC(C)C(=O)NC(=S)Nc1ccc(S(=O)(=O)N(C)Cc2ccccc2)cc1 [AD4-12051] | 28.852 | –
2 | COc1ccc(CC(=O)NC(=S)Nc2ccc(S(=O)(=O)NCCc3ccccc3)cc2)cc1 [AD4-10622] | 25.347 | –
3 | CC(=O)NC(=S)Nc1ccc(S(=O)(=O)N2CCc3ccccc32)cc1 [AD4-10103] | 29.295 | –
4 | Cc1ccc(NS(=O)(=O)c2ccc(NC(=S)NC(=O)CCc3ccccc3)cc2)cc1C [AD4-12103] | 26.212 | –
5 | COc1ccc(CC(=O)NC(=S)Nc2ccc(S(=O)(=O)N3CCOCC3)cc2)cc1 [AD4-11406] | 26.851 | –
6 | CCc1nnc(NS(=O)(=O)c2ccc(NC(=S)NC(=O)/C=C/c3ccccc3)cc2)s1 [AD4-11861] | 30.242 | –
7 | CCc1ccc2oc(=O)cc(CN3CCN(CCO)CC3)c2c1 [AD4-10178] | – | ICW Screen: 34.907
8 | CN1CCN(S(=O)(=O)c2ccc(NC(=S)NC(=O)CCc3ccccc3)cc2)CC1 [AD4-11424] | 28.422 | –
9 | O=C(NC(=S)Nc1ccc(S(=O)(=O)N2CCc3ccccc32)cc1)C1CCCC1 [AD4-12291] | 25.191 | –
10 | Cc1ccc(OCC(=O)NC(=S)Nc2ccc(S(=O)(=O)N3CCOCC3)cc2)c(Br)c1 [AD4-11401] | 25.557 | –
11 | COc1ccc(CC(=O)NC(=S)Nc2ccc(S(=O)(=O)Nc3nc(C)cc(C)n3)cc2)cc1 [AD4-11395] | 26.301 | –
12 | COc1ccc(CC(=O)NC(=S)Nc2ccc(S(=O)(=O)NC(C)(C)C)cc2)cc1 [AD4-12133] | 25.058 | –
13 | COc1cc(NS(=O)(=O)c2ccc(NC(=S)NC(=O)CCc3ccc(F)cc3)cc2)ncn1 [AD4-11384] | 28.127 | –
14 | C=CCN(CC=C)S(=O)(=O)c1ccc(NC(=S)NC(=O)/C=C/c2ccccc2)cc1 [AD4-12092] | 25.019 | –
15 | CN(Cc1ccccc1)S(=O)(=O)c1ccc(NC(=S)NC(=O)C2CCCCC2)cc1 [AD4-11410] | 28.101 | –
16 | CN(C1CCCCC1)S(=O)(=O)c1ccc(NC(=S)NC(=O)C2CC2)cc1 [AD4-11986] | 25.368 | –
17 | Cc1cc(C)c2nc(Nc3nc4c(c(=O)[nH]3)CCCC4)nc(C)c2c1 [11483 + TFA] | – | ICW Avg: 29.27; ICW 1: 29.55; ICW 2: 28.99
18 | CCN(c1ccccc1)S(=O)(=O)c1ccc(NC(=S)NC(=O)C2CCCCC2)cc1 [AD4-11407] | 27.585 | –
19 | CC(=O)NS(=O)(=O)c1ccc(NC(=S)NC(=O)Cc2cccc3ccccc23)cc1 [AD4-12071] | 27.713 | –
20 | CN1CCN(S(=O)(=O)c2ccc(NC(=S)NC(=O)C3CCCC3)cc2)CC1 [AD4-11973] | 27.176 | –

Row | Structure (SMILES) | ICW Screen (ICW Inhibition) | other results
21 | Cc1cc2oc(=O)cc(CN3CCN(CCO)CC3)c2cc1C [AD4-10176] | – | ICW Screen: 42.066
22 | Cc1cc(NS(=O)(=O)c2ccc(NC(=S)NC(=O)/C=C/c3cccs3)cc2)no1 [AD4-11863] | 27.36 | –
23 | Cc1cc(C)c2nc(Nc3nc(C)cc(=O)[nH]3)nc(C)c2c1 [11607 + TFA] | – | ICW Avg: 42.71; ICW 1: 43.69; ICW 2: 41.73
24 | COc1ccc(NS(=O)(=O)c2ccc(NC(=S)NC(=O)C3CCCC3)cc2)cc1 [AD4-11523] | 26.098 | –
25 | O=C(CCc1ccccc1)NC(=S)Nc1ccc(S(=O)(=O)N2CCOCC2)cc1 [AD4-12147] | 26.967 | –
26 | COc1cc(NS(=O)(=O)c2ccc(NC(=S)NC(=O)CCc3ccccc3)cc2)nc(OC)n1 [AD4-11405] | 26.497 | –
27 | COc1cc(OC)nc(NS(=O)(=O)c2ccc(NC(=S)NC(=O)C3CCCC3)cc2)n1 [AD4-11536] | 27.431 | –
28 | CCc1nnc(NS(=O)(=O)c2ccc(NC(=S)NC(=O)/C=C/c3ccc(C)cc3)cc2)s1 [AD4-11879] | 25.689 | –
29 | CCOc1ccc(NS(=O)(=O)c2ccc(NC(=S)NC(=O)CC(C)C)cc2)cc1 [AD4-12014] | 25.611 | –
30 | CN(Cc1ccccc1)S(=O)(=O)c1ccc(NC(=S)NC(=O)C2CCCC2)cc1 [AD4-12039] | 29.977 | –
31 | Cc1cc(-c2ccccc2)nc(Nc2nc(C)c3cc(C)c(C)cc3n2)n1 [compound 11309] | – | ICW Avg: 37.00; ICW 1: 33.31; ICW 2: 40.70
32 | CC(C)(C)NS(=O)(=O)c1ccc(NC(=S)NC(=O)C2CCC2)cc1 [AD4-11976] | 26.918 | –
33 | C=CCN(CC=C)S(=O)(=O)c1ccc(NC(=S)NC(=O)/C=C/c2ccc(F)cc2)cc1 [AD4-12157] | 26.73 | –
34 | CCCc1c[nH]c(Nc2nc(C)c3ccccc3n2)nc1=O [compound 12662] | – | ICW Avg: 25.21; ICW 1: 21.64; ICW 2: 28.79
35 | CN1CCN(S(=O)(=O)c2ccc(NC(=S)NC(=O)c3ccccc3)cc2)CC1 [AD4-11420] | 30.052 | –
36 | CCc1nnc(NS(=O)(=O)c2ccc(NC(=S)NC(=O)C34CC5CC(CC(C5)C3)C4)cc2)s1 [AD4-11385] | 28.892 | –
37 | Cc1cc(C)nc(NS(=O)(=O)c2ccc(NC(=S)NC(=O)C3CCCC3)cc2)n1 [AD4-12163] | 26.671 | –
38 | COc1ccc(NS(=O)(=O)c2ccc(NC(=S)NC(=O)/C=C/c3ccccc3)cc2)nn1 [AD4-11888] | 26.355 | –
39 | COc1ccc(NS(=O)(=O)c2ccc(NC(=S)NC(=O)C(C)(C)C)cc2)cc1 [AD4-11994] | 27.18 | –

From patent publication US20140179681A1, “METHODS AND COMPOSITIONS OF TARGETED DRUG DEVELOPMENT” (priority 2010, published 2014)
